How the values were obtained:
[1] = tested on: T-ALL cells from patients; experiment: Proliferation (3H-thymidine) of patient T-ALL cells; format: cell-based, human
Excerpt: CCRF-CEM, CEM/C1, CEM/C2, CEM-C7, Jurkat, Loucy, Molt-4, HSB-2, SUP-T1, Hut 78, HH, Hut 102, MO, and H9 T-leukemia and T-lymphoma cell lines were purchased from the American Type Culture Collection (Manassas, Va., USA). All of the cell lines were initially expanded and cryopreserved within one month of receipt. Cells were typically used for 6 months at which time a fresh vial of cryopreserved cells was used. Total T cells from healthy donors were isolated via negative selection followed by positive selection using a CD3+ selection kit (Invitrogen, Carlsbad, Calif.). T cells were isolated from patients with T-ALL bone marrow or peripheral blood samples containing more than 70% leukemia cells using a CD2+ isolation kit (STEMCELL Technologies, Vancouver, Canada). All tissues were collected under institutional IRB-approved protocols and all participants gave written informed assent/consent. For in vitro experiments, T-ALL cells were cultured in AIM-V medium supplemented with 20% human AB serum in the presence of recombinant human stem cell factor (50 ng/mL; Amgen, Thousand Oaks, Calif.), insulin (20 nM; Sigma-Aldrich, St Louis, Mo., USA) and IL-7 (50 ng/mL; R&D Systems, Minneapolis, Minn., USA). […]
Cells were cultured in a 96-well plate (Corning Costar, Corning, N.Y., USA) with various concentrations of TLR ligands 1-9, starting at 10 μg/ml, in a final volume of 200 ul. […] After this time point, cells were harvested with a Packard Filter-Mate-96 cell harvester (Perkin Elmer, Waltham, Mass., USA) and counted on Packard Top Count-NXT (Perkin Elmer, Waltham, Mass., USA). Results were expressed as average counts per minute (cpm). […] Forty-eight hours later, proliferation (±SD) was determined by ^3H-thymidine incorporation. Alternatively, apoptosis was measured by flow cytometry after staining cells with Annexin-V (BD Pharmingen, San Diego, Calif., USA) and propidium iodide (Sigma). Cell number was counted under microscopy by staining cells with trypan blue.

[2] = tested on: CCRF-CEM cells; experiment: CCRF-CEM T-ALL numbers in NSG mice (flow cytometry); format: in vivo
Protocol: CCRF-CEM (2×10^6) cells were injected intravenously (i.v.) into female NOD.Cg-Prkdc^scid Il2rg^tm1WJl/SzJ IL2RG (NSG) mice (Jackson Laboratories, Bar Harbor, Me.). […] In some experiments mice were injected i.v. with TLR1-TLR2 ligand (2.5 μg) two days after injecting cells. In other experiments mice were injected intraperitoneally (i.p.) with IRAK-1,-4 inhibitor (10 mg/kg) 3, 6, and 9 days (CCRF-CEM cells) or 7, 10, and 13 days (patient T-ALL cells) after detecting CD7^+ T-ALL cells in circulation. The numbers of T-ALL cells in the bone marrow, spleen, liver, and in circulation were determined by staining cells with anti-human CD7 and/or CD5. To compare T-ALL numbers between groups, 10 μl of calibration microbeads (BD Pharmingen) were added to 50 μl of blood (or marrow or spleen suspensions) and the flow cytometry instrument gates were set to count a constant number of beads.
The therapeutic efficacy of IRAK-1,-4 inhibitor was examined in mice with T-ALL. NSG mice were injected (i.v.) with the human T-ALL cell line CCRF-CEM. Mice were intraperitoneally (i.p.) injected with IRAK-1,-4 inhibitor 3, 6, and 9 days after T-ALL cells were detected in the circulation. The number of T-ALL cells in various tissues was determined four days after the final IRAK-1,-4 inhibitor injection by staining cells with human-specific anti-CD7 antibodies and analyzing by flow cytometry. The number of T-ALL cells was counted after normalization to calibration beads.
The physiological significance of activating TLR-IRAK signaling and T-ALL expansion was examined in vivo. NSG mice harboring CCRF-CEM cells were injected with either TLR1-TLR2 ligand or PBS. One week later the numbers of CD5+CD7+ T-ALL cells in bone marrow and spleen were determined by flow cytometry (FIG. 5, left). To normalize the T-ALL cell count between mice, an equal volume of calibration beads was added to blood samples and the instrument gates were set to count a constant number of beads.

[3] = tested on: A375 cells; experiment: Milliplex cytokine/chemokine array; format: cell-based, human
Protocol: FIG. 7. TLR and TLR signaling-related protein expression profiles on melanoma cell lines. (A) The expression levels of TLR1-TLR10 and various TLR-related proteins were examined by Western blot in samples from human melanoma cell lines. (B) The TLR1-TLR2 ligand Pam3CysK4 was added to A375 cells for 48 hrs. Cytokine and chemokine production by was determined using a Milliplex cytokine/chemokine array. (C) IRAK-1,-4 inhibitor or vehicle alone (DMSO) was added to melanoma cells for 48 hrs. The level of phosphorylated and non-phosphorylated p65 subunit of NF-KB was determined by Western blot. (D) Cytokine and chemokine levels in the supernatant A375 cell culture were examined using a Milliplex cytokine/chemokine array 48 hours after adding IRAK-1,-4 inhibitor or DMSO. ANOVA; **P<0.001, *P<0.05.
FIG. 19. Inhibiting IRAK-1/-4 abrogates the effects of TLR1-TLR2 agonist in melanoma cells. A375 cells were cultured in the presence or absence of TLR1-TLR2 ligand Pam3CysK4 (2.5 μg/ml) and in the presence of the IRAK-1/-4 inhibitor (10 μM) or vehicle control DMSO. Cytokine and chemokine production by was determined using a Milliplex cytokine/chemokine array 48 hrs. later.
A375 cells were cultured in the presence or absence of TLR1-TLR2 ligand Pam3CysK4 (2.5 μg/ml) and in the presence of the IRAK-1,-4 inhibitor (10 μM) or vehicle control DMSO. (FIG. 19). Therefore, activation of IRAK-1,-4 signaling on melanoma cells in vivo might contribute to cancer progression by inducing the expression of various chemokines and cytokines beneficial to cancer cell survival, division, and/or angiogenesis.

[4] = 10 mg/kg i.p. days 3, 6, 9, FIG. 17
[5] = 10 mg/kg i.p. days 3, 6, 9, vs DMSO or untreated, p<0.05
[6] = TLR1-TLR2 ligand 2.5 μg i.v. vs PBS, p<0.05, FIG. 5

O=C(Nc1nc2ccccc2n1CCN1CCOCC1)c1cccc([N+](=O)[O-])c1 [IRAK-1,-4 inhibitor]
proliferation of patient T-ALL samples ([1]; samples with phosphorylated IRAK-1,-4, vs equal volume DMSO, FIG. 6D): Every sample exhibited reduced proliferation | T-ALL cell numbers in the liver [2, 4]: only moderately reduced | T-ALL cell numbers in the spleen [2, 4]: only moderately reduced | number of CD7+ T-ALL cells in circulation [2, 5]: significantly reduced | number of CD7+ T-ALL cells in the bone marrow [2, 5]: significantly reduced | production of VEGF, CXCLI, MCP 1, PDGF-A and FGF-2 ([3]; 48 hrs, absence of TLR agonists, p<0.05, FIG. 7D): significantly reduced | cytokine/chemokine effects of TLR1-TLR2 agonist ([3]; IRAK-1,-4 inhibitor 10 μM with Pam3CysK4 2.5 μg/ml, FIG. 19): decreased the effects of TLR1-TLR2 agonist

tripalmitoyl-S-(bis(palmitoyloxy)propyl)-Cys-Ser-(Lys)3-Lys [Pam3Cysk4]
proliferation of patient T-ALL samples ([1]; five T-ALL patient samples, TLR1-TLR2 ligand, p<0.01, FIG. 6B): Two of five samples exhibited increased proliferation | concentrations giving increased proliferation ([1]; responding T-ALL patient samples, FIG. 6B): above 1.25 μg/ml | T-ALL cell number (CD5+CD7+) in the bone marrow [2, 6]: significantly augmented | T-ALL cell number (CD5+CD7+) in the spleen [2, 6]: significantly augmented | changes in levels of MCP-I, IL-6 and fractalkine ([3]; 48 hrs, FIG. 7B): not statistically significant | levels of GM-CSF and IP-10 ([3]; 48 hrs, p<0.001, FIG. 7B): significantly increased | levels of cytokines and chemokines including VEGF, CXCLI and IL-8 ([3]; 48 hrs, p<0.05, FIG. 7B): significantly augmented
